Experimental findings from patent US12215389B2, “Compositions for detecting epigenetic modifications” (EXACT SCIENCES CORPORATION, priority 2007, dated 2025) are described below.

This data set relates to methylated gene promoters in fecal DNA. As to the kind of experiment: Real-time MSP on stool (fecal) DNA. More on the design: species or system human. As to conditions: fecal samples; for Sens adenoma: 13 samples; for Sens CRC: 15 samples; for Spec: 19 samples. From the text: A standardized multicenter screening trial (The Netherlands) was initiated in 2006. In this trial, non symptomatic subjects aged 50 or above are screened with colonoscopy, FOBT and real-time MSP using DNA from stool and blood. In addition, prospectively collected stool samples from multiple centers (Germany and The Netherlands) were used. In these trials, symptomatic patients, attending a Gastroenterology clinic and ultimately diagnosed with CRC, provided a stool sample for use in real-time MSP. From the ongoing trials 147 stool samples were available for the present study. 3 main categories of stool samples were used: 67 samples with no suspicious findings, 58 adenomas and 22 samples from patients covering all stages of CRC, with 90% representing early stage disease.
After defecation in a special bucket, patients added 250 ml of stool homogenization buffer (Amresco, Solon, Ohio, USA) to the sample. Samples were shipped to the laboratory and further processed within 72 hours after defecation. Stool homogenization buffer was added to a ratio 1:7, and the samples were homogenized and aliquoted in portions of 32 ml.
Single aliquots (32 ml containing the equivalent of 4 g of stool) were centrifuged for 5 minutes at 2540 rcf at 20° C. The supernatant was retained and centrifuged a second time (10 minutes at 16500 rcf at 4° C.). 22 ml of the supernatant obtained following the second centrifugation step was incubated with 5 μl Rnase A for 60 minutes at 37° C. Total DNA was then SodiumAcetate (pH 5.2)-isopropanol precipitated and washed with 70% ethanol. The DNA was resuspended in 4 ml 1×TE (pH 7.4). 400 μl 10× buffer (240 mM EDTA (pH=8.0), 750 mM NaC), 400 μl 10% SDS, and 20 μl Proteinase K (20 mg/ml) was added and the samples were incubated at 48° C. overnight at constant shaking (225 RPM). After centrifugation (3000 RCF for 30 seconds at room temperature), 5 ml of Phenol:Chloroform:Isoamylalcohol (25:24:1, v/v:Invitrogen) was added and incubated for 10 minutes at room temperature shaking at 225 RPM and centrifuged for 5 minutes at 3000 RCF. The aqueous layer was transferred to a new tube containing 5 ml of Phenol:Chloroform:Isoamylalcohol. Again, the samples were incubated for 10 minutes at room temperature shaking at 225 RPM and centrifuged for 5 minutes at 3000 RCF at room temperature. The aqueous layer was transferred to a new tube and DNA was precipitated by adding 500 μl 7.5 M Ammonium Acetate, 5 μl glycogen and 10 ml of cold 100% Ethanol (−20° C.), further incubated at −20° C. for at least 1 hour and centrifuged at 15000 RCF for 30 minutes at 4° C. Pellets were washed with 3.5 ml freshly prepared 70% Ethanol and air dried. Pellets were finally resuspended in 2 ml of LoTE pH 8.0 and stored at −80° C., until further processing.
An upscaled DNA modification step was applied to 32 μg of the obtained DNA. 16 Aliquots of 2 μg of DNA were subjected to bisulfite modification in 96-wells format on a pipetting robot (Tecan), using the EZ-96DNA Methylation kit (Zymo Research), according to the manufacturer's protocol. Basically, aliquots of 45 μl were mixed with 5 μl of M-Dilution Buffer and incubated at 37° C. for 15 minutes shaking at 1100 rpm. Then 100 μl of the diluted CT Conversion Reagent was added and samples were incubated at 70° C. for 3 hours, shaking at 1100 rpm in the dark. After conversion, the samples were desalted by incubation on ice for 10 minutes and addition of 400 μl of M-Binding buffer. The samples were loaded on a Zymo-Spin I Column in a collection tube and after centrifugation washed with 200 μl of M-Wash Buffer. 200 μl of M-Desulphonation Buffer was put onto the column and incubated at room temperature for 15 minutes. After centrifugation of the columns, they were washed twice with 200 μl of M-Wash Buffer. Finally, the DNA was washed from the column in 50 μl Tris-HCl 1 mM pH8.0 and stored at −80° C., until further processing.

Consider “GATA5 (DNA AGTTCGTTTTTAGGTTAGTTTTCGGC; listed as DNA, chemistry not given here)”, for which the Sens adenoma came to 0%, the “Sens CRC” value amounted to 27% and the Spec worked out at 100%.
Regarding “SFRP1 (DNA TGTAGTTTTCGGAGTTAGTGTCGCGC; listed as DNA, chemistry not given here)”, the Sens adenoma amounted to 8%, the “Sens CRC” value turned out to be 67% and the Spec was found to be 100%.
